# Measured values from patent publication US6331548A, “1-cycloalkyl-1,8-naphthyridin-4-one derivative as type IV phosphodiesterase inhibitor” (Suntory Limited, priority 1998, dated 2001).
# Tests used:
# [1] = molecular target: type IV phosphodiesterase; assay: Type IV phosphodiesterase inhibiting activity; type: biochemical, human; conditions: U937 type IV phosphodiesterase fraction, 0.28 μM cAMP, pH 7.5, 30° C., 30 minutes; read-out: PDEIV-IC50
# Outline: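 PDE4 fraction from U937 cell lysate, separated on DEAE Sepharose, incubated with compound, 0.4 μCi 3H-cAMP (0.28 μM cAMP) and 5'-nucleotidase in Tris-HCl pH 7.5 with 1 mM MgCl2 for 30 min at 30 °C. Product radioactivity counted after QAE-Sephadex removal of substrate.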
# [2] = tested on: TNF-α production by LPS stimulated macrophages; assay: TNF-α production inhibitory activity by LPS stimulated macrophages; type: cell-based; conditions: Macrophage, BALB/c mouse peritoneal macrophages, cultured for 8 hours, ELISA
# [3] = tested on: mice; assay: Toxicity: death on intraperitoneal administration to mice for 5 weeks; type: in vivo; conditions: 10 mg/kg per day intraperitoneally for 5 weeks
# Text: Further, the compounds of the present invention are low in toxicity, and these compounds are expected to be high in safety.
Structure (SMILES),IC50 [1] [nM],IC50 [2] [nM],death [3]
"O=C1CCC(n2cc(C(=O)Nc3c(Cl)cncc3Cl)c(=O)c3cccnc32)CC1 [Example 120, N-(3,5-dichloropyridin-4-yl)-1-(4-oxocyclohexyl)-1,4-dihydro[1,8]naphthylidin-4-one-3-carboxamide]",2.7,0.7,no death
"O=C(Nc1ccncc1)c1cn(N2CCOCC2)c2ncccc2c1=O [Example 106, N-(4-pyridyl)-1-(1-morpholino)-1,4-dihydro[1,8]naphthylidin-4-one-3-carboxamide]",140,90,no death
"O=C(Nc1c(Cl)cncc1Cl)c1cn(C2CCN(C(=O)OCc3ccccc3)CC2)c2ncccc2c1=O [Example 25, N-(3,5-dichloropyridin-4-yl)-1-(1-benzyloxycarbonylpiperidin-4-yl)-1,4-dihydro[1,8]naphthylidin-4-one-3-carboxamide]",0.9,0.4,no death
"O=C(Nc1c(Cl)cncc1Cl)c1cn([C@H]2CCN(C(=O)OCc3ccccc3)C2)c2ncccc2c1=O [Example 10, (S)-N-(3,5-dichloropyridin-4-yl)-1-(1-benzyloxycarbonylpyrrolidin-3-yl)-1,4-dihydro[1,8]naphthyridin-4-one-3-carboxamide]",1.5,10,no death
"O=C(Nc1ccncc1)c1cn(C2CC2)c2ncccc2c1=O [Example 139, N-(4-pyridyl)-1-cyclopropyl-1,4-dihydro[1,8]naphthylidin-4-one-3-carboxamide]",240,370,no death
"COC(=O)N1CCC(n2cc(C(=O)Nc3c(Cl)cncc3Cl)c(=O)c3cccnc32)CC1 [Example 26, N-(3,5-dichloropyridin-4-yl)-1-(1-methoxycarbonylpiperidin-4-yl)-1,4-dihydro[1,8]naphthylidin-4-one-3-carboxamide]",0.9,0.2,no death
